Laboratory results taken from US7037652B2, “Expression analysis of KIAA nucleic acids and polypeptides useful in the diagnosis and treatment of prostate cancer” (Wyeth, priority 2000, dated 2006).

Assays:
[1] = test system: KIAA 96 expression in LNCaP cells; settings: 10 nM DHT, 24 hours, FIG. 3C
[2] = test system: PSA expression in LNCaP cells; settings: 10 nM DHT, FIG. 3A
[3] = test system: KIAA 18 expression in LNCaP cells; settings: 10 nM DHT
[4] = test system: Prostatic Acid Phosphatase (PAcP) in LNCaP; settings: cited from earlier work
[5] = test system: PSA production of LNCaP cells
LNCaP cells = settings: MTT assay, FIG. 1A
Method: Human prostatic cancer cell lines LNCaP, DU-145, PC-3, and Tsu-prl were obtained from ATCC. LNCaP cancer cells were maintained in humidified atmosphere of 5% CO2 in air in RPMI 1640 medium supplemented with 10% fetal calf serum (Life Technologies, Inc, Rockville, Md.), 3 mM L-glutamine, 100 μg/ml streptomycin and 100 units/ml penicillin. Other lines were maintained in DMEM containing 3 mM L-glutamine, 100 μg/ml streptomycin, 100 units/ml penicillin, and 10% FCS in humidified atmosphere of 5% CO2. To examine the effects of steroids, cells were cultured in RPMI 1640 medium containing 5% FCS treated with dextran coated charcoal (Hyclone, Logan, Utah) for 24 hs before treatment. Cells were grown in the absence or presence of 10 nM DHT for 0, 2, 4, 6, 12, 24, 48, and 72 hs. They were collected and frozen at each time point. Two hundred μl of medium were collected from each flask for PSA assay.
To verify the effect of DHT on the growth of LNCaP cells, cells at 3,000 cells/well were plated in 96-well plates for 24 hs before treatment with DHT. After 72 hs, MTT was added to each well and incubated at 37° C. for four hs. At the end of incubation, the supernatant was removed and 100 μl DMSO was added to each well to dissolve […]. Plates were subsequently read in a plate reader at […].

C[C@]12CCC(=O)C[C@@H]1CC[C@@H]1[C@@H]2CC[C@]2(C)[C@@H](O)CC[C@@H]12 [DHT, dihydrotestosterone]
KIAA 96 expression down relative to baseline [1]: 6 fold | PSA expression increase relative to control ([2]; 12 hours): 3 fold | PSA expression induction relative to control ([2]; 72 hours): approximately 4 fold | time at which KIAA 18 induction began [3]: 12 h | KIAA 18 over-expression relative to control ([3]; 24 hours, FIG. 3B): 2 fold | KIAA 18 induction relative to baseline ([3]; 72 hours): 3 fold | PAcP expression [4]: suppressed | PSA production [5]: increased in a dose-dependent manner | time at which PSA signal was first detected [5]: 12 h | time of maximal PSA level [5]: about 48 hs | growth of LNCaP cells (LNCaP cells): stimulated
